Reference: patent US11673888B2, “Bicyclic compounds as ATX inhibitors” (Hoffmann-La Roche Inc., priority 2017, dated 2023)
pIC50: −log10 of the molar value.

Molecular target: ATX (human His-tagged) (Homo sapiens (Human), UniProt Q13822)
Experiment: Human ATX Enzyme Inhibition Assay (fluorescence quenching, MR121 substrate)
Assay type: biochemical
Conditions: 30 nM ATX, 1 μM MR121 substrate, 30° C.
Method: Autotaxin (ATX-ENPP2) cloning: cDNA was prepared from commercial human hematopoietic cells total RNA and used as template in overlapping PCR to generate a full length human ENPP2 ORF with or without a 3′-6×His tag. These full length inserts were cloned into the pcDNA3.1V5-His TOPO (Invitrogen) vector. The DNA sequences of several single clones were verified. The DNA from a correct full length clone was used to transfect Hek293 cells for verification of protein expression. The sequence of the encoded ENPP2 conforms to Swissprot entry Q13822, with or without the additional C-terminal 6×His tag. ATX Fermentation: Recombinant protein was produced by large-scale transient transfection in 20 L controlled stirred tank bioreactors (Sartorius). During cell growth and transfection, temperature, stirrer speed, pH and dissolved oxygen concentration were maintained at 37° C., 120 rpm, 7.1 and 30% DO, respectively. […] Expression was analyzed by Western Blot, enzymatic assay and/or analytical IMAC chromatography. […] Human ATX Enzyme Inhibition Assay ATX inhibition was measured by a fluorescence quenching assay using a specifically labeled substrate analogue (MR121 substrate). […]

O=C(c1cnc(OCC2CCOCC2)c(C2CC2)c1)N1CCc2nc(C(=O)N3CCc4[nH]nnc4C3)sc2C1 [Example 1.03]
pIC50: 8.30
